Patent US20080269131A1, “Inhibitors of Akt Activity” (SMITHKLINE BEECHAM CORPORATION, priority 2005, published 2008)
In brackets after ≈: the same amount, converted by molar mass. Structures can show the parent of a compound that is named as a salt.

Legend:
[1] = system: LNCaP (lymph node metastasis of prostate cancer); assay: Methylene Blue Growth Inhibition assay, LNCaP; type: cell-based; conditions: Homo sapiens, 72 h, 3 days
Procedure: (§1) Cellular Assays: Methylene Blue Growth Inhibition assay
(§2) Tumor cell lines used in this assay were BT474 (human breast carcinoma) and LNCaP (lymph node metastasis of prostate cancer). HFF (normal human foreskin fibroblast) was also included. All cell lines were cultured in RPMI 1640 media (Invitrogen Corporation 22400-071) containing 10% Fetal Bovine Serum (FBS) at 37° C. in a humidified 5% CO2 incubator. Cells were harvested using trypsin/EDTA, counted using a hemacytometer and plated in 96-well tissue culture plates (Costar 35-3075), 100 uL per well, at the following densities: BT474 15,000 cells/well, LNCaP 5,000 cells/well and HFF 5,000 cells/well. 10 mM stocks of compounds in DMSO were serially diluted in DMSO through nine 3-fold dilutions in 96-well plates (Costar Corning 3363), and stored at −80 C. The next day, compound dilutions were thawed and 4 uL of each transferred to 662 uL RPMI 1640+100 ug/mL gentamicin, resulting in twice the final required test concentrations. 100 uL of compounds diluted in RPMI 1640 were added to all cell lines. The final concentration of DMSO in all wells, including controls, was 0.3%. Cells were incubated at 37 C, 5% CO2 for 3 days. Medium was removed by aspiration. Cell biomass was estimated by staining cells with 80 uL methylene blue (Sigma M9140, 0.5% in 50:50 ethanol:water), and incubating at room temperature for 1 hour. Stain was aspirated and the plates rinsed by immersion in water, then air-dried. Stain was released from cells by adding 100 uL of solubilizing solution (1% N-lauroyl sarcosine, sodium salt, Sigma L5125, in PBS) and incubating at room temperature for at least 30 minutes. Plates were shaken and the optical density at 620 nm was measured on a microplate reader. Percent inhibition of cell growth was calculated relative to vehicle-treated control wells. Concentration of compound that inhibits 50% of cell growth (IC50) was interpolated using non-linear regression (Levenberg-Marquadt) and the equation, y=Vmax*(1−(x̂n/K̂n+x̂n)))+Y2. [Ref: Mager, M. E. (1972) Data Analysis in Biochemistry and Biophysics. New York: Academic Press]

[2] = system: BT474 (human breast carcinoma); assay: Methylene Blue Growth Inhibition assay, BT474; type: cell-based; conditions: BT-474, 72 h, BT474, 3 days
Procedure: as §1, §2

[3] = Solubility in 50 mM phosphate buffer at pH 7.4; type: physicochemical; conditions: for solubility: 50 mM phosphate buffer, pH 7.4, aqueous buffer; for Solubility (statement in words): suitability for IV dosage forms, solubility in water
[4] = system: HFF (normal human foreskin fibroblast); assay: Methylene Blue Growth Inhibition assay, HFF; type: cell-based; conditions: 72 h, HFF normal cells, 3 days
Procedure: as §1, §2

FL AKT1 = FL AKT1 (Homo sapiens, UniProt P31749); assay: Full-length AKT enzyme assay (substrate phosphorylation, SPA); type: biochemical; conditions: 4 uM ATP
Sequence of FL AKT1 (P31749 whole entry): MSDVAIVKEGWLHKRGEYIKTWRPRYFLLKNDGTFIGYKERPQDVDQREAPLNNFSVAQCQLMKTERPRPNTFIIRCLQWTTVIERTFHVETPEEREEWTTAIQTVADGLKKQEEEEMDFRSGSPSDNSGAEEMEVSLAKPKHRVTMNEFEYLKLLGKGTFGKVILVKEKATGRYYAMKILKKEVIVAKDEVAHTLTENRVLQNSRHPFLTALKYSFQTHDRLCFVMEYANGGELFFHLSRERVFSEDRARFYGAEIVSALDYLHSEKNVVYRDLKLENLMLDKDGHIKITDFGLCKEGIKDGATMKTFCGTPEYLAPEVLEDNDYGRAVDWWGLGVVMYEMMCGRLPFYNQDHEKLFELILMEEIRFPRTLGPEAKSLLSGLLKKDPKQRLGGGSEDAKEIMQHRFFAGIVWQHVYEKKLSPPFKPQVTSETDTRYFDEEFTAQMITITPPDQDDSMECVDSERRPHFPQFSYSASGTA

FL AKT2 = molecular target: T1, FL AKT2 (Homo sapiens, UniProt P31751); assay: as above; type: biochemical; conditions: 4 uM ATP
T1 construct: 0.008 uM, FL AKT2 in the above full-length AKT enzyme assay
T1 sequence (P31751 whole entry): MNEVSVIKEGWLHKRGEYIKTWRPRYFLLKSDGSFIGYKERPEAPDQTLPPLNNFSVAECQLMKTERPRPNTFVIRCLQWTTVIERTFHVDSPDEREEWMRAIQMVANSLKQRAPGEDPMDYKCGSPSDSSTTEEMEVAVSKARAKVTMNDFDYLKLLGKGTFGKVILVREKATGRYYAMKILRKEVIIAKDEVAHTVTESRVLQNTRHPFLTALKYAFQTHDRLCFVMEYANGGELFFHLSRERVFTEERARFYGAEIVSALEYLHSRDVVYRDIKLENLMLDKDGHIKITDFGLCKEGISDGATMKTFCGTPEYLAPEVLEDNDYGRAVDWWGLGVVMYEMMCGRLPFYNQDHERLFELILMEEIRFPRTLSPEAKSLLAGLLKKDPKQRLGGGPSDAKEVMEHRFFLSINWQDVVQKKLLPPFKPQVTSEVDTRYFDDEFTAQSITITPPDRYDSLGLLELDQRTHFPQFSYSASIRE

IC50 [1] [nM]	IC50 [2] [nM]	solubility [3] [µM]	IC50 (FL AKT1) [nM]	IC50 (FL AKT2) [nM]	Compound	Solubility (statement in words) [3]	IC50 [4] [nM]
65	255	200 (≈ 87.9 µg/mL)			CCn1c(-c2nonc2N)nc2c(C#CC(C)(C)O)ncc(OCC[C@@H]3CCCCN3)c21 [Example 2, 4-[2-(4-amino-1,2,5-oxadiazol-3-yl)-1-ethyl-7-({2-[(2S)-2-Piperidinyl]ethyl}oxy)-1H-imidazo[4,5-c]pyridin-4-yl]-2-methyl-3-butyn-2-ol]	suitable for formulation into dosage forms for IV administration	14200
217	2590	159			CCn1c(-c2nonc2N)nc2c(C#CC(C)(C)O)ncc(OCC3CCNCC3)c21.O=C(O)C(F)(F)F [Compound Y, 4-{2-(4-amino-1,2,5-oxadiazol-3-yl)-1-ethyl-7-[(4-piperidinylmethyl)oxy]-1H-imidazo[4,5-c]pyridin-4-yl}-2-methyl-3-butyn-2-ol trifluoroacetate]		> 30000
> 30000	> 30000				CCn1c(-c2nonc2N)nc2c(-c3ccccc3)ncc(OCCN3CCOCC3)c21 [Compound T, 4-(1-ethyl-7-{[2-(4-morpholinyl)ethyl]oxy}-4-phenyl-1H-imidazo[4,5-c]pyridin-2-yl)-1,2,5-oxadiazol-3-amine trifluoroacetate]		18900
48	266	37 (≈ 19.2 µg/mL)			CCn1c(-c2nonc2N)nc2c(C#CC(C)(C)O)ncc(OCCCNCCc3ccc(OC)cc3)c21 [Compound Z, 4-(2-(4-amino-1,2,5-oxadiazol-3-yl)-1-ethyl-7-{[3-({2-[4-(methyloxy)phenyl]ethyl}amino)propyl]oxy}-1H-imidazo[4,5-c]pyridin-4-yl)-2-methyl-3-butyn-2-ol]		5510
836	8210	210			CCn1c(-c2nonc2N)nc2c(C#CC(C)(C)O)ncc(OCCCCN)c21.O=C(O)C(F)(F)F [Compound W, 4-[7-[(4-aminobutyl)oxy]-2-(4-amino-1,2,5-oxadiazol-3-yl)-1-ethyl-1H-imidazo[4,5-c]pyridin-4-yl}-2-methyl-3-butyn-2-ol trifluoroacetate]		22100
258	241	173			CCn1c(-c2nonc2N)nc2c(C#CC(C)(C)O)ncc(OCCCN)c21.O=C(O)C(F)(F)F [Compound X, 4-{2-(4-amino-1,2,5-oxadiazol-3-yl)-7-[(3-aminopropyl)oxy]-1-ethyl-1H-imidazo[4,5-c]pyridin-4-yl}-2-methyl-3-butyn-2-ol trifluoroacetate]		18100

The remaining lines, values behind:

Compound	IC50 [1] [nM]	IC50 [2] [nM]	solubility [3] [µM]	IC50 (FL AKT1) [nM]	IC50 (FL AKT2) [nM]	Solubility (statement in words) [3]	IC50 [4] [nM]
CCn1c(-c2nonc2N)nc2cncc(OC3CCNCC3)c21.O=C(O)C(F)(F)F [Compound U, 4-[1-ethyl-7-(piperidin-4-yloxy)-1H-imidazo[4,5-c]pyridine-2-yl]-furazan-3-ylamine trifluoroacetate]		4510	200				6470
CCn1c(-c2nonc2N)nc2c(C#CC(C)(C)O)ncc(OCC[C@@H]3CCCN3)c21 [Example 1, 4-[2-(4-amino-1,2,5-oxadiazol-3-yl)-1-ethyl-7-({2-[(2S)-2-pyrrolidinyl]ethyl}oxy)-1H-imidazo[4,5-c]pyridin-4-yl]-2-methyl-3-butyn-2-ol]	52	176	222 (≈ 94.5 µg/mL)	2	8	suitable for formulation into dosage forms for IV administration	12600
CCn1c(-c2nonc2N)nc2c(-c3ccccc3)ncc(OCC(O)CN3CCOCC3)c21 (stereo not shown) [Compound S, 1-{[2-(4-amino-1,2,5-oxadiazol-3-yl)-1-ethyl-4-phenyl-1H-imidazo[4,5-c]pyridin-7-yl]oxy}-3-(4-morpholinyl)-2-propanol trifluoroacetate]	7770	> 30000					> 30000
CCn1c(-c2nonc2N)nc2c(C#CC(C)(C)O)ncc(OCCC3CSCCN3)c21 (stereo not shown) [Example 3, 4-(2-(4-amino-1,2,5-oxadiazol-3-yl)-1-ethyl-7-{[2-(3-thiomorpholinyl)ethyl]oxy}-1H-imidazo[4,5-c]pyridin-4-yl)-2-methyl-3-butyn-2-ol]	7	26	7 (≈ 3.2 µg/mL)			suitable for formulation into dosage forms for IV administration	3590
CCn1c(-c2nonc2N)nc2c(-c3ccccc3)ncc(OCC3CCCNC3)c21.O=C(O)C(F)(F)F (stereo not shown) [Compound V, 4-{1-ethyl-4-phenyl-7-[(3-piperidinylmethyl)oxy]-1H-imidazo-[4,5-c]pyridin-2-yl}-1,2,5-oxadiazol-3-amine trifluoroacetate]	1640	1870	9				570
CCn1c(-c2nonc2N)nc2c(-c3ccccc3)ncc(OCCCN3CCOCC3)c21 [Compound R, 4-(1-ethyl-7-{[3-(4-morpholinyl)propyl]oxy}-4-phenyl-1H-imidazo[4,5-c]pyridin-2-yl)-1,2,5-oxadiazol-3-amine trifluoroacetate]	1420	17700					19900
